Entries after “also recorded” stand apart in the source; their conditions may differ.
How the values were obtained:
enteroendocrine cells = assay: iGluSnFR-HEK cell and CckCRE_tdTomato enteroendocrine cell co-culture, imaging of glutamate release; assay type: cell-based, mouse; details: D-glucose 40 mM, n=3 cultures
Experimental: CckCRE_tdTomato enteroendocrine cells were isolated as described above. Isolated cells were mixed with iGluSnFR-HEK cells at a ratio of 10:1, then plated on 1% Matrigel coated coverslips. Control iGluSnFR-HEK cells were plated alone. Cells were incubated for 12-18 hours before imaging. Coverslips were imaged using a multiphoton microscopy system (Bruker Ultima IV with a Chameleon Vision II tunable laser). Imaging frames were captured at 1.876 fps, using 920 nm light. Imaging series were analyzed using Fiji (ImageJ), and cell traces were plotted with Excel.

vagus nerve = assay: Vagus nerve recording during intraluminal (duodenal) nutrient or CCK perfusion; assay type: in vivo, mouse; details: D-glucose 150 mM perfused intraluminally, wild-type mice
Experimental: Wild-type control (n=5-9), CckCRE_ChR2-tdTomato (n=6), CckCRE_Halorhodopsin-YFP (n=5), and Vglut1CRE_ChR2-YFP (n=6) mice were used for vagal recordings. Mice were anesthetized with 3 mg/g-mouse urethane 1 hour before surgery then with 0.5-1% isoflurane. A section of neck skin was removed between the jaw and clavicle. The thyroid was reflected bilaterally, and the carotid bundle was exposed using coarse dissection. The carotid nerve was separated from the vagus nerve using a curved blunt probe. Two platinum iridium wires (0.001″ diameter, PTFE coated, 10% Ir 90% Pt; Medwire by Sigmund Cohn Corp) were looped around the vagus nerve for recording. Mineral oil was used to insulate the vagus nerve from surrounding tissue. The small intestine was exposed by removing a section of skin and peritoneum. A 20 gauge gavage needle was surgically inserted through the stomach wall and into the duodenum. The gavage needle was sutured in place beyond the pyloric sphincter. Saline and stimulant tubes were connected to the gavage needle. For optogenetic experiments, a fiber optic cable (FT020, ThorLabs) was threaded through the gavage needle into the lumen of the duodenum. A perfusion exit incision was made 10 cm distal to the pyloric sphincter. During each recording, PBS was constantly perfused through the duodenum using a peristaltic pump (Cole-Parmer) at the lowest setting for a flow rate of ˜400 uL PBS per minute. Stimulation conditions were applied after recording 2 minutes of baseline activity. During whole nutrient stimulation conditions, PBS perfusion was continuous and 200 μL of ENSURE® was perfused through the second tube for 1 minute using a syringe pump. […] During CCK stimulation conditions, PBS perfusion was continuous, and 200 μL of 2.9 μM CCK octapeptide-sulfated (BaChem) was perfused through the second tube for 1 minute using a syringe pump (Fusion 200, Chemyx) for a final concentration of ˜870 nM CCK in PBS (10 μg/kg dose). […] Final stimulant concentrations were determined using the ratio of dilution and confirmed by osmolarity testing (Model 3320 Osmometer, Advanced Instruments Inc.). During 473 nm laser stimulation conditions, PBS perfusion was continuous, and the laser was pulsed for 1 minute at 40 Hz, 4 volts peak voltage, 20% duty cycle (473 nm, 80 mW laser, RGBlase).
Extracellular voltage was recorded from a pair of platinum iridium wires as described above. A differential amplifier and bandpass filter (1000× gain, 300 Hz-5 kHz bandpass filter; A-M Systems LLC) was used and the signal was processed using a data acquisition board and software (20 kHz sampling rate; Signal Express, National Instruments Corp). The raw data was analyzed using a spike sorting algorithm (MATLAB by MathWorks). Spikes were detected using simple threshold detection based on RMS noise. The firing rate was calculated using a Gaussian kernel smoothing algorithm (200-ms time scale).
Stimulation response was quantified as the maximum firing rate after stimulation (stimulant conditions) or during recording (baseline). Each trial serves as its own control by normalizing the maximum firing rate to the average baseline firing rate (defined as the first two minutes of recording, prior to stimulation onset). Mice were excluded from analysis if no sucrose response was present throughout recording. Maximum firing rate was analyzed across genotype, stimulation condition, and their interaction term by ANOVA, followed by HSD post hoc testing (iMP by SAS Institute).

Question: With O=C[C@H](O)[C@@H](O)[C@H](O)[C@H](O)CO [D-glucose] as the compound, how does the “fluorescence response of iGluSnFR-HEK cells in close proximity to enteroendocrine cells (glutamate release)” value (enteroendocrine cells) read?
Answer: The value was “rapidly fluoresced green; also recorded: elicits a response”.

Question: What about the vagal firing rate (vagus nerve) of the same compound?
Answer: The vagal firing rate was “had the same effect; also recorded: stimulate”.

Reference: US20200147149A1, “COMPOSITIONS AND METHODS FOR THE MODULATION OF GUT SENSORY CELLS” (Duke University, priority 2017, published 2020)
